In US4994477A, “Heterocyclic renin inhibitors” (Abbott Laboratories, priority 1988, dated 1991):
pIC50: −log10 of the molar value.

target: T1, human renal renin (Homo sapiens, UniProt P00797); assay: inhibition of human renal renin in vitro, angiotensin I formed measured by radioimmunoassay; type: biochemical; settings: human angiotensinogen substrate, 37 degrees C, pH 6.0
T1 construct: human renal renin, free from acid proteolytic activity; from tissue; host or cells: human kidney (from the word 'renal')
T1 sequence (P00797 67-406): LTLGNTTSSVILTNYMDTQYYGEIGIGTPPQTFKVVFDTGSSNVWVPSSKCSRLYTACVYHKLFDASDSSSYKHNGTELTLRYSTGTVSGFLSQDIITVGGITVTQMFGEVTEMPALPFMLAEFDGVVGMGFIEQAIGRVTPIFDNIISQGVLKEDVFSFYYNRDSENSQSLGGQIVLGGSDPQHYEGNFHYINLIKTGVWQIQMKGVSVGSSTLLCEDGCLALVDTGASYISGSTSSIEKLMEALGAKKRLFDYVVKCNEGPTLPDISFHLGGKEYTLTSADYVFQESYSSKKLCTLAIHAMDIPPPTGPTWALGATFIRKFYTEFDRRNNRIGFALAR
Experimental: At the end of the incubation, the amount of angiotensin I formed is measured by radioimmunoassay and the molar concentration required to cause 50% inhibition, expressed as the IC50, is calculated.

Point of comparison: `CC(C)C[C@H](O)[C@H](O)[C@H](CC1CCCCC1)NC(=O)[C@H](Cc1c[nH]cn1)NC(=O)c1cc2ccccc2[nH]1` [Example 35, N-(Indolyl-2-carbonyl)-His Amide of 2(S)-Amino-1-cyclohexyl-3(R),4'(S)-dihydroxy-6-methylheptane], pIC50 8.48. Against it:
- CC(C)C[C@H](O)[C@H](O)[C@H](CC1CCCCC1)NC(=O)[C@H](Cc1c[nH]cn1)NC(=O)N1CCc2ccccc2C1 [Example 114, N-(1,2,3,4-Tetrahydroisoquinolinyl-2-carbonyl)-His Amide of 2(S)-Amino-1-cyclohexyl-3(R),4(S)-dihydroxy-6-methylheptane] — 1.28 log units lower, 7.20
- COCOC[C@H](NC(=O)c1cc2ccccc2[nH]1)C(=O)N[C@@H](CC1CCCCC1)[C@@H](O)[C@@H](O)CC(C)C [Example 150, N-(Indolyl-2-carbonyl)-(O-methoxymethyl)Ser Amide of 2(S)-Amino-1-cyclohexyl-3(R),4(S)-dihydroxy-6-methylheptane] — 0.91 log units lower, 7.57
- CCCC[C@H](NC(=O)c1cc2ccccc2[nH]1)C(=O)N[C@@H](CC1CCCCC1)[C@@H](O)[C@@H](O)CC(C)C [Example 40, N-(Indolyl-2-carbonyl)-Nle Amide of 2(S)-Amino-1-cyclohexyl-3(R),4(S)-dihydroxy-6-methylheptane] — 0.66 log units lower, 7.82
- CC(C)C[C@H](O)[C@H](O)[C@H](CC1CCCCC1)NC(=O)[C@H](Cc1c[nH]cn1)NC(=O)c1nc2ccccc2n1Cc1ccccc1 [Example 48] — 1.71 log units lower, 6.77
- CC(C)C[C@H](O)[C@H](O)[C@H](CC1CCCCC1)NC(=O)CN1Cc2c([nH]c3ccccc23)C1=O [Example 75, (2'S,3'R,4'S)-2-[N-(1-cyclohexyl-3,4-dihydroxy-6-methyl-2-heptyl)carbamoyl]methyl-1,2,3,4-tetrahydropyrrolo[3,4-b]indol-3-one] — 1.78 log units lower, 6.70
- CCN1C[C@@H]([C@H](O)[C@H](CC2CCCCC2)NC(=O)[C@H](Cc2c[nH]cn2)N2Cc3c([nH]c4ccccc34)C2=O)OC1=O [Example 59, (1'S,2"S,3"R,5'"S)-2-[1-[N-[1-Cyclohexyl-3-hydroxy-3-(3-ethyloxazolidin-2-on-5-yl)-2-propyl]carbamoyl]-2-(4-imidazolyl)ethyl]-1,2,3,4-tetrahydropyrrolo[3,4-b]indol-3-one] — 0.76 log units lower, 7.72
- CCN1C[C@@H]([C@H](O)[C@H](CC2CCCCC2)NC(=O)[C@H](Cc2c[nH]cn2)NC(=O)c2ccc3ccccc3n2)OC1=O [Example 109, N-(Quinolinyl-2-carbonyl)-His Amide of (2'S,1'R,5S)-3-Ethyl-5-(1-hydroxy-2-amino-3-cyclohexylpropyl)oxazolidin-2-one] — 1.04 log units lower, 7.44
- CC(C)C[C@H](O)[C@H](O)[C@H](CC1CCCCC1)NC(=O)[C@H](Cc1cc[nH]n1)N1Cc2c([nH]c3ccccc23)C1=O [Example 87, (1'S,2"S,3"R,4"S)-2-[1-[N-(1-Cyclohexyl-3,4-dihydroxy-6-methyl-2-heptyl)carbamoyl]-2-(3-pyrazolyl)ethyl]-1,2,3,4-tetrahydropyrrolo[3,4-b]indol-3-one] — 0.46 log units lower, 8.02
- CC(C)C[C@H](O)[C@H](O)[C@H](CC1CCCCC1)NC(=O)[C@H](Cc1c[nH]cn1)N1CCc2c([nH]c3ccccc23)C1=O [Example 101, (1'S,2"S,3"R,4"S)-2-[1-[N-(1-Cyclohexyl-3,4-dihydroxy-6-methyl-2-heptyl)carbamoyl]-2-(4-imidazolyl)ethyl]-1,2,3,4-tetrahydro-9H-pyrido[3,4-b]indol-1-one] — 1.31 log units lower, 7.17
- O=C(N[C@@H](Cc1c[nH]cn1)C(=O)NCC(O)CO)c1[nH]c2ccccc2c1CCC=CC1CCCCC1 (stereo partly shown) [Example 127, N-[3-(4-Cyclohexylbut-3-enyl)indolyl-2-carbonyl]-His Amide of 3-Amino-1,2-propanediol] — 3.33 log units lower, 5.15
- CC(C)C[C@H](O)[C@H](O)[C@H](CC1CCCCC1)NC(=O)[C@H](Cc1c[nH]cn1)NC(=O)c1ccc2ccccc2n1 [Example 110, N-(Quinolinyl-2-carbonyl)-His Amide of 2(S)-Amino-1-cyclohexyl-3(R),4(S)-dihydroxy-6-methylheptane] — 0.42 log units lower, 8.06
- O=C(N[C@@H](Cc1c[nH]cn1)C(=O)NCC(O)CO)c1[nH]c2ccccc2c1CCc1ccccc1 (stereo partly shown) [Example 130, [3-(2-Phenylethyl)indolyl-2-carbonyl]-His Amide of 3-Amino-1,2-propanediol] — 3.48 log units lower, 5.00
- CC(C)C[C@H](O)[C@H](O)[C@H](CC1CCCCC1)NC(=O)[C@H](Cc1c[nH]cn1)NC(=O)c1cc2ccccc2n1C [Example 41, N-(1-Methylindolyl-2-carbonyl)-His Amide of 2(S)-Amino-1-cyclohexyl-3(R),4(S)-dihydroxy6-methylheptane] — 1.68 log units lower, 6.80
- CC(C)C[C@H](O)[C@H](O)[C@H](CC1CCCCC1)NC(=O)[C@H](CCC(=O)O)NC(=O)c1cc2ccccc2[nH]1 [Example 38, N-(Indolyl-2-carbonyl)-Glu Amide of 2(S)-Amino-1-cyclohexyl-3(R),4(S)-dihydroxy-6-methylheptane] — 1.59 log units lower, 6.89
- CCCCC(C(=O)N[C@@H](CC1CCCCC1)[C@@H](O)[C@@H](O)CC(C)C)N1Cc2c([nH]c3ccccc23)C1=O (stereo partly drawn) [Example 93, (1'RS,2"S,3"R,4"S)-2-[1-[N-(1-Cyclohexyl-3,4-dihydroxy-6-methyl-2-heptyl)carbamoyl]pentyl]-1,2,3,4-tetrahydropyrrolo[3,4-b]indol-3-one] — 1.12 log units lower, 7.36
- CC1=C(C(=O)N[C@@H](Cc2c[nH]cn2)C(=O)N[C@@H](CC2CCCCC2)[C@@H](O)[C@@H](O)CC(C)C)Cc2ccccc21 [Example 42, N-(3-Methylindenyl-2-carbonyl)-His Amide of 2(S)-Amino-1-cyclohexyl-3(R),4(S)-dihydroxy-6-methylheptane] — 1.78 log units lower, 6.70
- CCN1C[C@@H]([C@H](O)[C@H](CC2CCCCC2)NC(=O)C(Cc2cc[nH]n2)N2Cc3c([nH]c4ccccc34)C2=O)OC1=O (stereo partly drawn) [Example 89, (1'RS,2"S,3"R,5"'S)-2-[1-[N-[1-Cyclohexyl-3-hydroxy-3-(3-ethyloxazolidin-2-on-5-yl)-2-propyl]carbamoyl]-2-(3-pyrazolyl)ethyl]-1,2,3,4-tetrahydropyrrolo[3,4-b]indol-3-one] — 1.43 log units lower, 7.05
- CCCC[C@@H](C(=O)N[C@@H](CC1CCCCC1)[C@@H](O)[C@@H](O)CC(C)C)N1CCc2c([nH]c3ccccc23)C1=O [Example 96] — 1.30 log units lower, 7.18
- CCN1C[C@@H]([C@H](O)[C@H](CC2CCCCC2)NC(=O)[C@H](Cc2c[nH]cn2)NC(=O)c2cc3ccccc3[nH]2)OC1=O [Example 51, N-(Indolyl-2-carbonyl)-His-Amide of (2'S,1'R,5S)-3-Ethyl-5-(1'-hydroxy-2'-amino-3'-cyclohexylpropyl)oxazolidin-2one] — 0.56 log units lower, 7.92
- CC(C)C[C@H](O)[C@H](O)[C@H](CC1CCCCC1)NC(=O)[C@H](Cc1c[nH]cn1)NC(=O)c1cc2ccccc2o1 [Example 43, N-(Benzofuranyl-2-carbonyl)-His Amide of 2(S)-Amino-1-cyclohexyl-3(R),4(S)-dihydroxy-6-methylheptane] — 0.48 log units lower, 8.00
- CC(C)C[C@H](O)[C@H](O)[C@H](CC1CCCCC1)NC(=O)[C@H](CC(C)C)N1Cc2c([nH]c3ccccc23)C1=O [Example 70, (1'S,2"S,3"R,4"S)-2-[1-[N-(1-cyclohexyl-3,4-dihydroxy-6-methyl-2-heptyl)carbamoyl]-3-methylbutyl]-1,2,3,4-tetrahydropyrrolo[3,4-b]indol-3-one] — 1.48 log units lower, 7.00
